For one data set, the target named is T1, BCRP (Homo sapiens, UniProt Q9UNQ0).
T1 sequence (Q9UNQ0 1-655): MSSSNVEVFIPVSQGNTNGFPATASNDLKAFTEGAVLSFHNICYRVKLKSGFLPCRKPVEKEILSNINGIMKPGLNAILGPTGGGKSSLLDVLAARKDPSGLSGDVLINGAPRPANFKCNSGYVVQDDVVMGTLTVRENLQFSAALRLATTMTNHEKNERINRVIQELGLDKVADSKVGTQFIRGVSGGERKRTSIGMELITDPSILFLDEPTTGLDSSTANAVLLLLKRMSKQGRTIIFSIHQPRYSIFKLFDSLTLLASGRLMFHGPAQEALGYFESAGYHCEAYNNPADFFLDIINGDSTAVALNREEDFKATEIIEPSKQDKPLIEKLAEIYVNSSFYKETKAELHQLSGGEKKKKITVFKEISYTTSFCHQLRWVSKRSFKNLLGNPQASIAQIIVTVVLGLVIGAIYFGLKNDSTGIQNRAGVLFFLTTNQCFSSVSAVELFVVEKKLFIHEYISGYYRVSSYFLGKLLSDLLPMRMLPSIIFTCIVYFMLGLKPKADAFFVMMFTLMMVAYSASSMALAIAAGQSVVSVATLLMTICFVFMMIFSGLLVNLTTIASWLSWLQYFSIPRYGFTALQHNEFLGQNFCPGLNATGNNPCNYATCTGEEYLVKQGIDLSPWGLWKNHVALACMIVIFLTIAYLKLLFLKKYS
The settings on record: probe substrate pheophorbide A; ref Weiss et al.[15]; cited from earlier work.

The test system of data set [1] is intestinal BCRP and hepatic OATP1B1, OATP1B3, NTCP. The data set can be described thus: Mechanistic static prediction of rosuvastatin AUC change (AUCR). The following applies: predicted AUCR 1.01.
For data set [2] the test system is unchanged. The following applies: rosuvastatin; ref Elsby et al.[13]; cited from earlier work.
The target in a further data set is T2, human OATP1B3 (SLCO1B3) (Homo sapiens, UniProt Q9NPD5).
T2 sequence (Q9NPD5 1-702): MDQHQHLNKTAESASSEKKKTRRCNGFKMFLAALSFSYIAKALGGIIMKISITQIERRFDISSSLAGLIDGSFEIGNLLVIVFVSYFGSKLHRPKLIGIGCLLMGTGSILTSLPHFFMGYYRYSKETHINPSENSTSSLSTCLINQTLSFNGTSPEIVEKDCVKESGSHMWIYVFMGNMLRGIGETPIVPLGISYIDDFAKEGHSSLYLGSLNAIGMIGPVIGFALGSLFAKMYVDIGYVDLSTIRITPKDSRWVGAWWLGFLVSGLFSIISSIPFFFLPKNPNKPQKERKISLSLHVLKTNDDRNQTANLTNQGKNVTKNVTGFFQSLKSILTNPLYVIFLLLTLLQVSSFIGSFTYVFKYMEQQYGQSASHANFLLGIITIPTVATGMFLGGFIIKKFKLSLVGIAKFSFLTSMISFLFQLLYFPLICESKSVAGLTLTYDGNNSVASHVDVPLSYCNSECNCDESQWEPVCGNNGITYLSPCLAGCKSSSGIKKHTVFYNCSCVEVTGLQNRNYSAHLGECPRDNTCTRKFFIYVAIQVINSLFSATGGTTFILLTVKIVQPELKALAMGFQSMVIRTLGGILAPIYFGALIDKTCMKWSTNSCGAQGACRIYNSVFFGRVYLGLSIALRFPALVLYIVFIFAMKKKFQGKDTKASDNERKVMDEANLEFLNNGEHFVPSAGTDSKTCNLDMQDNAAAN
The settings on record: ≥10x [Iin max u]: atazanavir 50 μM, darunavir 15 μM, lopinavir 5 μM, ritonavir 0.3 μM; [3H]-estradiol 17β-D-glucuronide 0.02 μM.

Data set [3] is described as follows: Pharmacokinetic parameters of protease inhibitors in clinical interaction studies with rosuvastatin. The settings on record: calculated, clinical dose of Table 5.

We go through one compound from paper PMC9944867, “Mechanistic in vitro studies indicate that the clinical drug–drug interactions between protease inhibitors and rosuvastatin are driven by inhibition of intestinal BCRP and hepatic OATP1B1 with minimal contribution from OATP1B3, NTCP and OAT3” (Pharmacology Research & Perspectives, 2023).

As to `COC(=O)N[C@H](C(=O)N[C@@H](Cc1ccccc1)[C@@H](O)CN(Cc1ccc(-c2ccccn2)cc1)NC(=O)[C@@H](NC(=O)OC)C(C)(C)C)C(C)(C)C` [atazanavir], the “Published IC50/Ki (BCRP)” value on BCRP is reported as 69.1 (pheophorbide A) μM. Further, in data set [1], the “Reduction in NTCP function reflected by predicted AUCR” value was 4%. The “Predicted AUCR, inhibition of BCRP and OATP1B1 alone (earlier model)” value in data set [2] is recorded as 2.13. Also, the “Inhibition of OATP1B3-mediated probe substrate transport, single concentration screen” value on human OATP1B3 (SLCO1B3) is on record as “produced inhibition”. The “[Ig] maximal enterocyte concentration” value in data set [3] ((FaFg × ka × dose)/Qent) is 142 µM. Also, in data set [3], the “[Iin max u] unbound maximum hepatic inlet concentration” value was 4.90 µM and the “[Iin max] maximum hepatic inlet concentration” value was 35.0 µM.
